# Data reported in patent publication EP4541376A1, “ANTIBODY-DRUG CONJUGATES” (priority 2023, dated 2025).
# Numbered stars: 1 amine (or outer) side, 2 acyl side, 3 side chain; on linkers, the order of the positions; unused ones are H or OH. Square brackets hold non-standard residues; d marks the D form. Peptide text beside a SMILES is read from it. * marks the point of attachment. Exatecan = CC[C@@]1(O)C(=O)OCc2c1cc1n(c2=O)Cc2c-1nc1cc(F)c(C)c3c1c2[C@@H](N*)CC3; Propanoyl(3-maleimido) = O=C1C=CC(=O)N1CCC(=O)*; PABC = O=C(OCc1ccc(N[*:1])cc1)[*:2]
# Legend:
# [1] = Aggregation study during conjugation to test antibody (% monomer by SEC); format: physicochemical
# Experimental: Aggregation is a process in which molecules self-associate with each other. In the context of the present invention, aggregation levels are assessed during the conjugation of a linker construct to an antibody. During conjugation, aggregation is quantified in terms of percentage monomer content. High percentage monomer values typically equate to a lower degree of aggregation. Percentage monomer values of 93% or 95% or higher typically mean negligible levels of aggregation or none, whereas values below this threshold typically translate to higher levels of aggregation.
# 2 mg of test monoclonal antibody at 8.87 mg/ml was pH adjusted with 5% 0.5 M Tris, 0.025 M EDTA, pH 8.5 and reduced with 2.3 mol. eq. TCEP and then conjugated with 6mol. eq. drug linker. […] Percentage monomer values of 95% or greater are assessed as low aggregation.
# Aggregation levels were assessed during the conjugation to the test antibody.
# During conjugation, we are ideally targeting a monomer content or percentage monomer of 95% or above. Low percentage monomer values usually translate to a higher degree of aggregation. One could therefore agree that percentage monomer values of 95% or higher mean very low levels of aggregation or none, whereas values below this threshold often translate to higher levels of aggregation.
# [2] = Reverse-Phase HPLC retention time correlation study (hydrophobicity); format: physicochemical; conditions: RP-HPLC; high Rt associated to hydrophobic constructs, low Rt to hydrophilic ones
# Experimental: • Column: Phenomenex Gemini NX 5m, C18, 110 Å, 150 × 4.6 mm • Instrument: Shimadzu LC-2030 • Mobile phase: A) water (0.05% TFA), B) acetonitrile (0.05% TFA) • Gradient: 20-70% B over 15 min, flow 1.0 mL/min
# A correlation study was also carried out using Reverse-Phase HPLC (RP-HPLC). The two constructs were injected in RP-HPLC and retention times (Rt) correlated with hydrophobicity - i.e., high Rt was associated to hydrophobic constructs whereas low Rt to hydrophilic ones.
compound,measurement,setting,value
CC[C@@]1(O)C(=O)OCc2c1cc1n(c2=O)Cc2c-1nc1cc(F)c(C)c3c1c2[C@@H](NC(=O)OCc1ccc(NC(=O)[C@H](C)NC(=O)[C@@H](NC(=O)CNC(=O)CNC(=O)CNC(=O)CNC(=O)CNC(=O)CCN2C(=O)C=CC2=O)C(C)C)cc1)CC3 [Mal-Gly5-VA-PABC-Exatecan] ({Propanoyl(3-maleimido)}-GGGGGVA[PABC]-Exatecan),Aggregation (% monomer),"[1]; % monomer by SEC after conjugation to test monoclonal antibody, 95% or greater assessed as low aggregation",98%
same,Aggregation,"[1]; grade in words, drug linker conjugated to test monoclonal antibody (2.3 mol. eq. TCEP, 6 mol. eq. drug linker)",None
same,Rt,[2],9.76 min
